This passage reports MIC and ED50 results from patent US4278670A, “7-Alpha-oxyiminoacylcephalosporins” (SmithKline Corporation, priority 1976, dated 1981).

In brackets after ≈: the same amount, converted by molar mass. Counter-ions that a name gives are not always drawn. Like-named read-outs stand apart in the source and are kept apart here.

What is called MIC is the least concentration at which growth counts as inhibited. One may read the ED50 as the dose at which the effect has come halfway, by size or by number of responders. Read a high ED50 as weaker potency.

The test system of test [1] is S. Aureus HH 127. Briefly: MIC in vitro, S. Aureus HH 127 (G+). Type of test: cell-based. As to conditions: Staphylococcus aureus.
The test system of test [2] is S. Aureus SK 23390. Description: MIC in vitro, S. Aureus SK 23390 (G+). As to conditions: Staphylococcus aureus. It counts as cell-based.
The test system of test [3] is S. villaluz SK 70390. Description: MIC in vitro, S. villaluz SK 70390 (G+). Type of test: cell-based.
Test [4] concerns Strep. Faecalis HH 34358. Description: MIC in vitro, Strep. Faecalis HH 34358 (G+). It counts as cell-based. The settings on record: Enterococcus faecalis.
Test [5] has as its system E. coli SK 12140. Description: MIC in vitro, E. coli SK 12140 (G-). Type of test: cell-based. The settings on record: Escherichia coli, SK12140.
Test [6] deals with E. coli HH 33779. Briefly: MIC in vitro, E. coli HH 33779 (G-). The settings on record: Escherichia coli, HH33779. It counts as cell-based.
The test system of test [7] is Kleb. pneumoniae SK 2400. Description: MIC in vitro, Kleb. pneumoniae SK 2400 (G-). It counts as cell-based. The settings on record: Klebsiella pneumoniae, SK2400.
Test [8] has as its system Kleb. pneumoniae SK 1200. Briefly: MIC in vitro, Kleb. pneumoniae SK 1200 (G-). Type of test: cell-based. The settings on record: Klebsiella pneumoniae, SK1200.
The subject of test [9] is Salmonella ATCC 12176. Description: MIC in vitro, Salmonella ATCC 12176 (G-). Type of test: cell-based. As to conditions: ATCC12176.
Test [10] concerns Pseudo Aeruginosa HH 63. Description: MIC in vitro, Pseudo Aeruginosa HH 63 (G-). It counts as cell-based.
The subject of test [11] is Serratia Marcescens ATCC 13880. Description: MIC in vitro, Serratia Marcescens ATCC 13880 (G-). It counts as cell-based. The settings on record: ATCC13880.
For test [12], the system named is Proteus morgani 179. Description: MIC in vitro, Proteus morgani 179 (G-). Type of test: cell-based.
The test system of test [13] is Entero. aerogenes ATCC 13048. Description: MIC in vitro, Entero. aerogenes ATCC 13048 (G-). It counts as cell-based. The settings on record: Klebsiella aerogenes, ATCC13048.
The test system of test [14] is Entero. cloacae HH 31254. Briefly: MIC in vitro, Entero. cloacae HH 31254 (G-). The settings on record: Enterobacter cloacae, HH31254. Type of test: cell-based.
In test [15] the test system is P. Mirabils PM 444. Description: MIC in vitro, P. Mirabils PM 444 (G-). Type of test: cell-based.
For test [16], the system named is E. coli 12140. Briefly: mouse protection against E. coli 12140. It counts as in vivo. The settings on record: Escherichia coli, sc, S.C. From the text:
For comparison with known used compounds, data for cefuroxime, cefazolin and cephalothin are included.

[17] abbreviates: in vitro, G+, S. Aureus HH 127, read-out: MIC.
The mark [18] stands for this setting: in vitro, G+, S. Aureus SK 23390, read-out: MIC.
Setting [19] is: in vitro, G+, S. villaluz SK 70390, read-out: MIC.
The mark [20] stands for this setting: in vitro, G+, Strep. Faecalis HH 34358, read-out: MIC.
Setting [21] is: in vitro, G-, Kleb. pneumoniae SK 2400, read-out: MIC.
Setting [22] is: in vitro, G-, Kleb. pneumoniae SK 1200, read-out: MIC.
[23] abbreviates: in vitro, G-, Salmonella ATCC 12176, read-out: MIC.
[24] abbreviates: in vitro, G-, Proteus morgani 179, read-out: MIC.
Setting [25] is: in vitro, G-, Entero. aerogenes ATCC 13048, read-out: MIC.
Setting [26] is: in vitro, G-, Entero. cloacae HH 31254, read-out: MIC.

In the case of `Cc1nnc(SCC2=C(C(=O)O)N3C(=O)[C@@H](NC(=O)Cn4cnnn4)[C@H]3SC2)s1` [Cefazolin, cefazolin], the minimum inhibitory concentration (MIC) in [1] (setting [17]) came to 0.4 µg/mL (≈ 0.88 µM); in test [2] (setting [18]), 0.2 µg/mL (≈ 0.44 µM); in [3] (setting [19]), 200 µg/mL (≈ 440 µM); in test [4] (setting [20]), 6.3 µg/mL (≈ 13.9 µM); in test [5], 0.8 µg/mL (≈ 1.76 µM); in [6] (in vitro, G-, E. coli HH 33779, read-out: MIC), 0.8 µg/mL (≈ 1.76 µM). The MIC was 0.8 µg/mL (≈ 1.76 µM) in test [7] (setting [21]); 0.8 µg/mL (≈ 1.76 µM) in [8] (setting [22]); 0.8 µg/mL (≈ 1.76 µM) in test [9] (setting [23]); greater than 200 µg/mL in test [10] (in vitro, G-, Pseudo Aeruginosa HH 63, read-out: MIC); 100 µg/mL (≈ 220 µM) in [11] (in vitro, G-, Serratia Marcescens ATCC 13880, read-out: MIC); 100 µg/mL (≈ 220 µM) in test [12] (setting [24]). The MIC in test [13] (setting [25]) came out at 1.6 µg/mL (≈ 3.52 µM); in test [14] (setting [26]) it was 0.8 µg/mL (≈ 1.76 µM); in test [15] it was 3.1 µg/mL (≈ 6.82 µM). Further, the ED50 in test [16] was found to be 6.25 mg/kg.
Regarding `CC(=O)OCC1=C(C(=O)O)N2C(=O)[C@@H](NC(=O)Cc3cccs3)[C@H]2SC1` [Cephalothin, cephalothin], the minimum inhibitory concentration (MIC) in test [1] (setting [17]) was found to be 0.2 µg/mL (≈ 0.504 µM); in test [2] (setting [18]), 0.2 µg/mL (≈ 0.504 µM); in test [3] (setting [19]), 50 µg/mL (≈ 126 µM); in test [4], 12.5 µg/mL (≈ 31.5 µM); in [5], 3.1 µg/mL (≈ 7.82 µM); in test [6], 6.3 µg/mL (≈ 15.9 µM). Also, the minimum inhibitory concentration (MIC) in test [7] was 3.1 µg/mL (≈ 7.82 µM); in test [8], 1.6 µg/mL (≈ 4.04 µM); in test [9] (setting [23]), 0.8 µg/mL (≈ 2.02 µM); in test [10] it was greater than 200 µg/mL; in [11] (Serratia marcescens), greater than 200 µg/mL; in test [12] it was greater than 200 µg/mL. Moreover, the figures for the minimal inhibitory concentration (MIC) in test [13], in test [14] (setting [26]) and in [15] were 12.5 µg/mL (≈ 31.5 µM), 6.3 µg/mL (≈ 15.9 µM) and 3.1 µg/mL (≈ 7.82 µM), respectively.
Regarding `CO/N=C(\C(=O)N[C@@H]1C(=O)N2C(C(=O)O)=C(COC(N)=O)CS[C@H]12)c1ccco1` [Cefuroxim, cefuroxime], the minimum inhibitory concentration (MIC) in test [1] was 0.8 µg/mL (≈ 1.89 µM); in test [2], 1.6 µg/mL (≈ 3.77 µM); in test [3], greater than 200 µg/mL; in [4] (setting [20]), 2.5 µg/mL (≈ 5.89 µM); in test [5], 6.3 µg/mL (≈ 14.8 µM); in test [6], 6.3 µg/mL (≈ 14.8 µM). Moreover, the minimal inhibitory concentration (MIC) in test [7] was 3.1 µg/mL (≈ 7.3 µM); in test [8] it was 3.1 µg/mL (≈ 7.3 µM); in [9] (Salmonella) it was 3.1 µg/mL (≈ 7.3 µM); in test [10] it was greater than 200 µg/mL; in [11] (Serratia marcescens), 12.5 µg/mL (≈ 29.5 µM); in [12] (setting [24]), 50 µg/mL (≈ 118 µM). For the same compound, the figures for the MIC in [13] (setting [25]), in [14] and in [15] were 6.3 µg/mL (≈ 14.8 µM), 3.1 µg/mL (≈ 7.3 µM) and 1.6 µg/mL (≈ 3.77 µM), respectively. For the same compound, the ED50 in [16] is 6.25 mg/kg.
As for `CO/N=C(\C(=O)N[C@@H]1C(=O)N2C(C(=O)O)=C(CSc3nnnn3CCC(=O)O)CS[C@H]12)c1ccco1` [Example 1, 7[Syn-2-methoxyimino-2-α-furylacetamido]-3-[1-(2-carboxyethyl)tetrazol-5-ylthiomethyl]-3-cephem-4-carboxylic acid, disodium salt], the MIC in test [1] was 3.1 µg/mL; in [2] it was 1.6 µg/mL; in [3] (setting [19]), greater than 200 µg/mL; in [4], 50 µg/mL; in [5] (in vitro, G-, E. coli SK 12140, read-out: MIC), 1.6 µg/mL; in [6] it was 3.1 µg/mL. Also, the MIC worked out at 0.8 µg/mL in test [7] (setting [21]); 0.8 µg/mL in test [8] (setting [22]); 0.8 µg/mL in [9] (setting [23]); 200 µg/mL in test [10]; 3.1 µg/mL in test [11] (Serratia marcescens); 1.6 µg/mL in [12] (setting [24]). The MIC is 3.1 µg/mL in test [13], 1.6 µg/mL in test [14] (setting [26]) and 0.2 µg/mL in [15]. Also, the 50% effective dose (ED50) in [16] was 4.4 mg/kg.
